The numbers were not newly measured in US20220395499A1, “C[…] AFTER 5HT2A AGONISTS ADMINISTRATION” (Mind Medicine, Inc., priority 2021, published 2022), which cites them from elsewhere.

The target of one data set is T1, 5HT2A receptor (Homo sapiens, UniProt P28223).
T1 construct: host or cells: human subjects (in vivo, oral dosing)

The conditions of data set [1]: LSD alone, no dose stated.
The subject of data set [2] is adrenergic, dopaminergic, histaminergic, or muscarinic receptors.
For the next data set, the target named is 5-HT2B receptors (Homo sapiens, UniProt P41595).
Experiment in data set [3]: not given
This is another data set of the same source.

The target in another data set is CYP3A4 (Homo sapiens, UniProt P08684).
The mark [4] stands for this setting: single 34-mg dose of pimavanserin.

Structures are written as SMILES. Where two headings read alike, the source gives them in different places.

T1 sequence (P28223 whole entry): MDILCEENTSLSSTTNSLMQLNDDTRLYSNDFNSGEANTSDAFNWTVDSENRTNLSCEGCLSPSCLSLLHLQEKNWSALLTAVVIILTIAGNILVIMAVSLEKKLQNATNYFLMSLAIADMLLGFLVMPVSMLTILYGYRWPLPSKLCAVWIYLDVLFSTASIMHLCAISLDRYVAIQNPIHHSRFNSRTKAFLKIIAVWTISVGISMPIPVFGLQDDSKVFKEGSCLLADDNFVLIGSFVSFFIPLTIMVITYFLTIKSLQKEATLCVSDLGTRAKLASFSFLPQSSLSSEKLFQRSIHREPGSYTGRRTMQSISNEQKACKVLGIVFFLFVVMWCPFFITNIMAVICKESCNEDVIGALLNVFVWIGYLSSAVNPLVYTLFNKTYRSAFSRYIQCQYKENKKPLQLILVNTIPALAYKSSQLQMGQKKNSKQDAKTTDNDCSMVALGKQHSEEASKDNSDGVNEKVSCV
Sequence of CYP3A4 (P08684 whole entry): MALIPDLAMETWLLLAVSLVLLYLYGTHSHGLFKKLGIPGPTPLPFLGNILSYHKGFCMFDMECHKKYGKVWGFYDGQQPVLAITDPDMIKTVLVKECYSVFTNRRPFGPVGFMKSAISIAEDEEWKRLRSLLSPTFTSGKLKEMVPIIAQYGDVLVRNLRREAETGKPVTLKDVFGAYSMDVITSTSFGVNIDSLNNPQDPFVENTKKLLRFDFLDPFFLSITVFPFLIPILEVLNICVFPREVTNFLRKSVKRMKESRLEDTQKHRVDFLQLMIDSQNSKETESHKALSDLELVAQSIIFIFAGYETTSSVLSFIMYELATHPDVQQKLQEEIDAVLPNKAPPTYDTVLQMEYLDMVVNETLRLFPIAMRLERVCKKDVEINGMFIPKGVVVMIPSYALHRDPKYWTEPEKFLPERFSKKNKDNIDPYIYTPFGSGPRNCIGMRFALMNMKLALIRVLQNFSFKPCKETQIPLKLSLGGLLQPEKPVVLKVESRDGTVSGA
Sequence of 5-HT2B receptors (P41595 whole entry): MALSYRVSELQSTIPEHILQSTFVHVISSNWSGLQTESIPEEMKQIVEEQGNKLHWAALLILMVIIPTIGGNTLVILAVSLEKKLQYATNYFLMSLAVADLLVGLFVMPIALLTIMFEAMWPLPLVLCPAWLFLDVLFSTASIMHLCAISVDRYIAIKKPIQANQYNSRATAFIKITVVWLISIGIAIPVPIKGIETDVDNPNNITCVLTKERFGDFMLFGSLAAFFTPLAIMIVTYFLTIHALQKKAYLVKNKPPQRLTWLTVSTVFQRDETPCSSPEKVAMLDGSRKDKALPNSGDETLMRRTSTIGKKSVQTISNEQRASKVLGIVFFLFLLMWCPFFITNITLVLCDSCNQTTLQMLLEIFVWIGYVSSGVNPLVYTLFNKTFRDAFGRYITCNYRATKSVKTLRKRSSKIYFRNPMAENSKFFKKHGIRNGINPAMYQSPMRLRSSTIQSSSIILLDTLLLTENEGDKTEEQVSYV

As for `O=C(c1ccc(F)cc1)C1CCN(CCn2c(=O)[nH]c3ccccc3c2=O)CC1` [ketanserin], the “effect on the LSD experience” value on 5HT2A receptor (ketanserin 40 mg orally 1 hour prior to a high dose of LSD of 200 μg, Liechti) is listed as “prevented the LSD experience”; at 5HT2A receptor (ketanserin 40 mg orally 1 hour prior to oral LSD at a moderate dose (70-100 μg), Preller et al., 2017) it was “prevent the LSD experience almost completely”.
`CC(C)COc1ccc(CNC(=O)N(Cc2ccc(F)cc2)C2CCNCC2)cc1` [AC-279]: for the setting “metabolite of pimavanserin”, the “half-life of the active N-desmethylated metabolite” value was 200 h.
Regarding `CCN(CC)C(=O)[C@@H]1C=C2c3cccc4[nH]cc(c34)C[C@H]2N(C)C1` [LSD, Lysergic acid diethylamide], the “usual duration of action” value in data set [1] is 8 to 12 h.
In the case of `CC(C)COc1ccc(CNC(=O)N(Cc2ccc(F)cc2)C2CCN(C)CC2)cc1` [Pimavanserin, pimavanserin], the “antagonism of adrenergic, dopaminergic, histaminergic, or muscarinic receptors” value in data set [2] is reported as “does not induce clinically significant antagonism”. Under setting [4], the half-life result is “approximately 57 hours”, the “mean (SD) apparent volume of distribution” value was 2,173 (307) L and the “time to maximum plasma concentration” value is on record as “six”. For the same compound, the “affinity for 5-HT2B receptors” value at 5-HT2B receptors is recorded as “no affinity”. Also, the plasma protein binding result in data set [3] was “highly bound to plasma protein”. Moreover, at CYP3A4, the “CYP3A4 inhibition or induction” value is “does not cause significant CYP3A4 inhibition or induction”.
